According to PMC7926923, “Identification of Active Site Residues of the Siderophore Synthesis Enzyme PvdF and Evidence for Interaction of PvdF with a Substrate-Providing Enzyme” (International Journal of Molecular Sciences, 2021):

Experiments:
PvdF [1] = target: T1, PvdF (Pseudomonas aeruginosa, UniProt Q9I184); assay: direct injection mass spectrometry of fOHOrn product; format: biochemical; details: 25 uM PvdF, 1 mM OHOrn, 1.5 mM fTHF, 10 mM HEPES pH 8.0, 30 C, 3 h
T1 construct: recombinant from E. coli BL21(DE3), His6 tag kept at N-terminus (His6PvdF, pET-DUET1; also all variants) or C-terminus (PvdFHis6, pET21a); IMAC and SEC; monomer
T1 sequence (Q9I184 entry or part of it): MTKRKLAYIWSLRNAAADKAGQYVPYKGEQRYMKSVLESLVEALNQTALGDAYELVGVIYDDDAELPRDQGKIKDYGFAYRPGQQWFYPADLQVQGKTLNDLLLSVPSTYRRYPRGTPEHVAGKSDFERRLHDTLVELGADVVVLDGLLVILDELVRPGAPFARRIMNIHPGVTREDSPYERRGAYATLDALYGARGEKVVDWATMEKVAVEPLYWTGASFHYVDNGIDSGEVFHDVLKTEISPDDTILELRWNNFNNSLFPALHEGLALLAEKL

PvdF [2] = target: T1, PvdF; assay: differential scanning fluorimetry, SYPRO Orange; format: binding; details: 10 uM protein, 1.5 mM fTHF, 10 mM HEPES pH 8.0; site not determined; also co-substrate in the activity assay

Compound	direct injection mass spectrometry of fOHOrn product (PvdF [1])	thermal shift (PvdF [2])
N[C@@H](CCCNO)C(=O)O [L-OHOrn]	able to convert OHOrn to fOHOrn with fTHF as the co-substrate	–
Nc1nc2c(c(=O)[nH]1)N[C@@H](CN(C=O)c1ccc(C(=O)N[C@@H](CCC(=O)O)C(=O)O)cc1)CN2 [N^10-formyltetrahydrofolate]	–	addition of fTHF resulted in a significant change in fluorescence of wild-type PvdF
